# Experimental data: patent publication US8980222B2, “Diagnostic use of endothelin ETB receptor agonists and ETA receptor antagonists in tumor imaging” (The Board of Trustees of the University of Illinois, priority 2004, dated 2015)
# Like-named read-outs stand apart in the source and are kept apart here. Non-standard residues stand in square brackets, D forms with d. Residues, ends and D or L forms follow the SMILES beside them.
# Key:
# tumor [1] = assay: Tumor blood flow with ETA receptor antagonists; conditions: in vivo
# Protocol: A study using BMS182874, an ETA receptor antagonist, also was conducted.
# tumor [2] = conditions: Sonveaux et al. 2004; cited from earlier work
# breast tumor = assay: Breast tumor blood perfusion by Laser Doppler Flowmetry in MNU-induced mammary tumor rats; assay type: in vivo, rat; conditions: for Maximal increase in tumor perfusion (%): Laser Doppler Flowmetry, breast tumor-bearing rats
# Protocol: MNU or saline treatments were carried out as intraperitoneal injections three months prior to the study. Rats were regularly palpated from four weeks after onset of the treatments. When the tumors reached an optimal size (i.e., 4-8 mm in diameter), the experiments were begun. Systemic hemodynamic and regional circulation parameters were determined at baseline, 30, 60, and 120 minutes after initiating ET-1 (50 ng/kg/min) infusion.
# Blood perfusion to the mammary gland of the rats was measured using laser Doppler flowmetry as described in literature procedures (23, 24). The animals were shaved around the nipples. The skin surrounding the mammary glands was dissected out as a lambeau about 6 cm wide and 4 cm long. A standard model fiber optic probe was applied to the surface of the lambeau, and secured to the tissue by double stick tape. The lambeau was placed in a metal holder and taped down to prevent movement, then connected to a Periflux PF2b 4000 Laser Doppler Flowmetry (Perimed KB, Stockholm, Sweden). The time constant was set at 1.5 seconds and the bandwidth was set at 4 KHz.
# A preclinical model of MNU-induced primary autochthonous mammary tumor was used in the following studies. This tumor model of breast cancer offers several advantages over other models (Rai et al., Cancer Chemother. Parmaacol., 51(1):21-8 (2003)). Virgin female Sprague Dawley rats were used for the study. At 48 days of age, rats received a single injection of N-methyl nitrosourea (MNU; 50 mg/kg, i.v.). Eighty percent of the animals developed tumors two months after MNU injection and 10% of total rats may die or loose weight due to MNU injection or develop a tumor after several months. Tumor appearance and location is monitored by manual mammary gland palpation and the tumor diameter is measured with a digital caliper. Rats with a tumor volume of 200-500 mm^3 were selected for the experiments.
# FIG. 2 illustrates the effect of IRL-1620 on breast tumor perfusion (N=5/group). Breast tumor-bearing rats were anesthetized and mammary tumor perfusion was recorded using a Laser Doppler Flowmetry for three hours. A 15-minute stable baseline recording was obtained before the administration of saline or IRL-1620 1, 3, or 9 nmol/kg via the tail vein in a final volume of 0.2 ml. Tumor perfusion was recorded for three hours (*p<0.001 compared to vehicle-treated rats).
# Animals received BQ 788 ([…]) or saline via tail vein 15 minutes before the administration of IRL-1620 (3 nmol/kg) and tumor perfusion was recorded for three hours (*p<0.001 compared to BQ 788-administered rats). Studies also were conducted to determine the effect of IRL-1620 on blood perfusion in normal mammary tissue.
# ETA and ETB receptors = conditions: cited from earlier work
Compound,Selectivity for ETB receptors than ETA receptors (ETA and ETB receptors),Maximal increase in tumor perfusion (%) (breast tumor),other results
Cc1noc(NS(=O)(=O)c2cccc3c(N(C)C)cccc23)c1C [BMS182874],,,Tumor blood flow (tumor [1]): increased the tumor blood flow
CC(C)C[C@@H]1NC(=O)[C@@H](C(C)C)NC(=O)[C@@H]2CCCN2C(=O)[C@@H](CC(=O)O)NC(=O)[C@@H](Cc2c[nH]c3ccccc23)NC1=O [BQ123] (cyclo(L[dW][dD]P[dV])),,,Tumor blood flow (tumor [2]): significantly improved
"CCCC[C@@H](NC(=O)[C@@H](Cc1cn(C(=O)OC)c2ccccc12)NC(=O)[C@H](CC(C)(C)C)NC(=O)N1[C@H](C)CCC[C@@H]1C)C(=O)O [BQ788, N-cis-2,6-dimethylpiperidinocarbonyl-L-gamma-methylleucyl-D-1-methoxycarbonyltrptophanyl-D-Nle]",,,Effect of antagonist on IRL-1620 induced tumor blood perfusion (breast tumor; BQ 788 0.5 μg/kg 15 minutes before IRL-1620 3 nmol/kg): completely blocked; Effect of antagonist on ET-1 induced increase in tumor blood flow (breast tumor; ET-1 induced): completely blocked
"CC[C@H](C)[C@H](NC(=O)[C@H](CC(=O)O)NC(=O)[C@H](CC(C)C)NC(=O)[C@H](Cc1c[nH]cn1)NC(=O)[C@@H]1CSSC[C@H](N)C(=O)N[C@@H](CO)C(=O)N[C@H]2CSSC[C@H](NC(=O)[C@H](CCC(=O)O)NC(=O)[C@H](CCCCN)NC(=O)[C@H](CC(=O)O)NC(=O)[C@H](CCSC)NC(=O)[C@H](CC(C)C)NC(=O)[C@H](CO)NC(=O)[C@H](CO)NC2=O)C(=O)N[C@@H](C(C)C)C(=O)N[C@@H](Cc2ccc(O)cc2)C(=O)N[C@@H](Cc2ccccc2)C(=O)N1)C(=O)N[C@H](C(=O)N[C@@H](Cc1c[nH]c2ccccc12)C(=O)O)[C@@H](C)CC [ET-1, Endothelin-1]",equal affinity,46.19%,"Breast tumor perfusion after exogenous infusion (breast tumor; rat, in vivo): transient increase; Perfusion to major organs (breast tumor; rat, in vivo): without altering perfusion"
ET-3: ET agonist three times more selective for ETB receptors than ETA receptors,three times more selective,47.99%,
"[Ala^1, 3, 11, 15]-ET-1 (ASASSLMDKEAVYFAHLDIIW; Endothelin-1; UniProt P05305 53-73, looked up, variant C1A C3A C11A C15A) [4 Ala ET-1]",1700 times,53.96%,
